In one test the test system is Heart. The test can be described thus: Positive inotropic activity in rabbit heart assessed as increase in left atrium stroke volume at 3 X 10^-5 M. It is filed as functional, Oryctolagus cuniculus, Cardiac atrium.
The species named for test [1] is Oryctolagus cuniculus. The test can be described thus: Positive inotropic activity in perfused beating rabbit atrium assessed as increase in stroke volume at 30 umol/l relative to control. It is filed as functional, tissue-based. Particulars: Cardiac atrium.
Test [2] is filed under the species Oryctolagus cuniculus. The test can be described thus: Positive inotropic activity in perfused rabbit atrium assessed as increase in stroke volume at 30 umol/l in presence of adenylate cyclase activator forskolin relative to control. The class given is functional, tissue-based. Particulars: Cardiac atrium.
The species entered for test [3] is Oryctolagus cuniculus. Description: Positive inotropic activity in perfused rabbit atrium assessed as increase in stroke volume at 30 umol/l in presence of PKA inhibitor H-89 relative to control. It is filed as functional, tissue-based. Particulars: Cardiac atrium.
For test [4], the species on record is Oryctolagus cuniculus. The test can be described thus: Positive inotropic activity in perfused rabbit atrium assessed as increase in stroke volume at 30 umol/l in presence of L-type Ca2+ channel blocker nifedipine relative to control. The class given is functional, tissue-based. Particulars: Cardiac atrium.
The species named for test [5] is Oryctolagus cuniculus. Description: Positive inotropic activity in perfused rabbit atrium assessed as increase in stroke volume at 1 X 10^-5 to 10^-4 M relative to control. Particulars: Cardiac atrium.
Setting [6] is: Oryctolagus cuniculus, Cardiac atrium.

Molecules are shown by their SMILES. Activity calls are given as the source filed them. The calls are words filed in the database; no cut-off is given here.

Take `Cc1ccc(C(=O)N2CCN(c3nn4nnnc4c4ccccc34)CC2)cc1`: in the test with Heart, the Activity is reported as 13.46%. The outcome in the test filed under Oryctolagus cuniculus [1] was Active. In the case of `Cc1ccc(/C=C/C(=O)N2CCN(c3nn4nnnc4c4ccccc34)CC2)cc1`, the Activity in the test with Heart stood at 2.74%. Moreover, the outcome in the test listed under Oryctolagus cuniculus [1] was Active. Take `O=C(c1ccc(Br)cc1)N1CCN(c2nn3nnnc3c3ccccc23)CC1`: the Activity with Heart was determined as 7.49%. The result in the test listed under Oryctolagus cuniculus [1] was Active. On the same counts, the results for `COc1cccc(/C=C/C(=O)N2CCN(c3nn4nnnc4c4ccccc34)CC2)c1` are 5.35% and “Active”. With `O=C(/C=C/c1ccc(F)cc1)N1CCN(c2nn3nnnc3c3ccccc23)CC1`, the outcome in the test on Heart (setting [6]) was inactive. As to `O=C(c1ccc(Br)cc1)N1CCN(c2nn3cnnc3c3ccccc23)CC1`, the Activity in the test on Heart was determined as 3.65%. Moreover, the outcome in the test listed under Oryctolagus cuniculus [1] was Active. With `O=C(/C=C/c1cccc(Br)c1)N1CCN(c2nn3cnnc3c3ccccc23)CC1`, in the test on Heart (setting [6]), the result was inactive. The same measure, in the same setting: as for `O=C(/C=C/c1ccccc1)N1CCN(c2nn3cnnc3c3ccccc23)CC1`, the entry is “inactive”. As to `COc1cccc(/C=C/C(=O)N2CCN(c3nn4cnnc4c4ccccc34)CC2)c1`, the Activity in the test on Heart worked out at 4.13%. For the same compound, the outcome in the test listed under Oryctolagus cuniculus [1] was Active. Regarding `O=C(c1cccc(Cl)c1)N1CCN(c2nn3nnnc3c3ccccc23)CC1`, the Activity in the test with Heart is reported as 0.23%. As to `O=C(c1cccc(Br)c1)N1CCN(c2nn3cnnc3c3ccccc23)CC1`, the Activity with Heart is recorded as 8.49%. In the test filed under Oryctolagus cuniculus [1], the result was Active. `O=C(/C=C/c1ccccc1)N1CCN(c2nn3nnnc3c3ccccc23)CC1`: the Activity in the test with Heart is 8.09%. Further, the outcome in the test listed under Oryctolagus cuniculus [1] was Active. Regarding `COc1ccc(C(=O)N2CCN(c3nn4cnnc4c4ccccc34)CC2)cc1`, the Activity in the test on Heart was 3.68%. In addition, the outcome in the test filed under Oryctolagus cuniculus [1] was Active.

Regarding `O=C(/C=C/c1cccc(Br)c1)N1CCN(c2nn3nnnc3c3ccccc23)CC1`, the result in the test with Heart (setting [6]) was inactive. As to `O=C(c1ccc(Cl)cc1)N1CCN(c2nn3nnnc3c3ccccc23)CC1`, the Activity in the test with Heart amounted to 2.05%. Take `O=C(/C=C/c1cccc(Cl)c1)N1CCN(c2nn3nnnc3c3ccccc23)CC1`: in the test on Heart (setting [6]), the result was inactive. Consider `O=C(c1ccccc1)N1CCN(c2nn3cnnc3c3ccccc23)CC1`, for which, in the test on Heart (setting [6]), the outcome was inactive. Consider `O=C(c1ccc(F)cc1)N1CCN(c2nn3nnnc3c3ccccc23)CC1`, for which, in the test on Heart, the Activity is reported as 4.73%. Moreover, the outcome in the test listed under Oryctolagus cuniculus [1] was Active.

For the compound `O=C(c1ccc(F)cc1)N1CCN(c2nn3cnnc3c3ccccc23)CC1`, the Activity in the test on Heart is 2.91%. Also, the result in the test filed under Oryctolagus cuniculus [1] was Active. Take `Cc1ccc(C(=O)N2CCN(c3nn4cnnc4c4ccccc34)CC2)cc1`: the Activity with Heart is 19.15%. Further, the outcome in the test filed under Oryctolagus cuniculus [2], in the test filed under Oryctolagus cuniculus [5] and in the test filed under Oryctolagus cuniculus [1] was Active. Further, the outcome in the test filed under Oryctolagus cuniculus [3] and in the test filed under Oryctolagus cuniculus [4] was inactive. For the compound `Cc1ccc(/C=C/C(=O)N2CCN(c3nn4cnnc4c4ccccc34)CC2)cc1`, in the test with Heart, the Activity is on record as 14.87%. In addition, the result in the test listed under Oryctolagus cuniculus [5] and in the test filed under Oryctolagus cuniculus [1] was Active. Take `O=C(/C=C/c1ccc(Cl)cc1)N1CCN(c2nn3cnnc3c3ccccc23)CC1`: the outcome in the test with Heart (setting [6]) was inactive. As to `O=C(c1ccccc1)N1CCN(c2nn3nnnc3c3ccccc23)CC1`, the outcome in the test on Heart (setting [6]) was inactive.

For the compound `O=C(/C=C/c1cccc(Cl)c1)N1CCN(c2nn3cnnc3c3ccccc23)CC1`, the result in the test with Heart (setting [6]) was inactive. For `Cc1[nH]c(=O)c(C#N)cc1-c1ccncc1` [MILRINONE], in the test with Heart, the Activity was 2.46%. Consider `O=C(/C=C/c1ccc(Cl)cc1)N1CCN(c2nn3nnnc3c3ccccc23)CC1`, for which the outcome in the test with Heart (setting [6]) was inactive.

Take `O=C(/C=C/c1ccc(Br)cc1)N1CCN(c2nn3nnnc3c3ccccc23)CC1`: the result in the test on Heart (setting [6]) was inactive. Take `COc1ccc(CN2CCN(c3nn4nnnc4c4ccccc34)CC2)cc1`: the Activity in the test with Heart is on record as 12.02%. For the compound `O=C(c1ccc(Cl)cc1)N1CCN(c2nn3cnnc3c3ccccc23)CC1`, the Activity in the test with Heart is listed as 13.33%. For the same compound, in the test listed under Oryctolagus cuniculus [1], the outcome was Active. In the case of `COc1cccc(C(=O)N2CCN(c3nn4cnnc4c4ccccc34)CC2)c1`, the Activity in the test on Heart is given as 0.95%. For `O=C(/C=C/c1ccc(F)cc1)N1CCN(c2nn3cnnc3c3ccccc23)CC1`, in the test with Heart (setting [6]), the result was inactive. Take `COc1cccc(C(=O)N2CCN(c3nn4nnnc4c4ccccc34)CC2)c1`: in the test on Heart, the Activity is reported as 1.94%. As for `O=C(c1cccc(Cl)c1)N1CCN(c2nn3cnnc3c3ccccc23)CC1`, in the test with Heart, the Activity was determined as 2.56%. In addition, in the test filed under Oryctolagus cuniculus [1], the outcome was Active. `O=C(c1cccc(Br)c1)N1CCN(c2nn3nnnc3c3ccccc23)CC1`: in the test with Heart (setting [6]), the result was inactive. The same measure, in the same setting: as for `O=C(/C=C/c1ccc(Br)cc1)N1CCN(c2nn3cnnc3c3ccccc23)CC1`, the entry is “inactive”. With `COc1ccc(C(=O)N2CCN(c3nn4nnnc4c4ccccc34)CC2)cc1`, in the test on Heart, the Activity was found to be 9.39%. In addition, in the test listed under Oryctolagus cuniculus [1], the result was Active.
